Results from the supplement of paper PMC10307832.

Experiments:
Assay in all cases: relative viability (nuclei count vs DMSO), 5 days (fraction); higher = more cells survive
201T = system: 201T
Method in brief: (§1)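 One day after seeding in 1536-well plates, lung cancer cell lines were dosed by pin tool. Dosing was either single-drug or a fixed anchor-drug dose plus five library-drug doses (not always all listed) in √10 steps. After 5 days, nuclei were stained in one fix-and-stain step and counted on 4× images, and relative viability is the nuclei count of treated wells over that of vehicle wells, given as the median of duplicate plates.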

BEN = system: BEN
Method in brief: as §1

COR-L 105 = system: COR-L 105
Method in brief: as §1

COR-L23 = system: COR-L23
Method in brief: as §1

EKVX = system: EKVX
Method in brief: as §1

HARA = system: HARA
Method in brief: as §1

HCC-15 = system: HCC-15
Method in brief: as §1

HCC-366 = system: HCC-366
Method in brief: as §1

HCC-78 = system: HCC-78
Method in brief: as §1

HCC-827 = system: HCC-827
Method in brief: as §1

LC-2-ad = system: LC-2-ad
Method in brief: as §1

LU99A = system: LU99A
Method in brief: as §1

LXF-289 = system: LXF-289
Method in brief: as §1

NCI-H1650 = system: NCI-H1650
Method in brief: as §1

NCI-H1734 = system: NCI-H1734
Method in brief: as §1

NCI-H1755 = system: NCI-H1755
Method in brief: as §1

NCI-H1944 = system: NCI-H1944
Method in brief: as §1

NCI-H1975 = system: NCI-H1975
Method in brief: as §1

NCI-H1993 = system: NCI-H1993
Method in brief: as §1

NCI-H3122 = system: NCI-H3122
Method in brief: as §1

NCI-H596 = system: NCI-H596
Method in brief: as §1

RERF-LC-KJ = system: RERF-LC-KJ
Method in brief: as §1

SK-LU-1 = system: SK-LU-1
Method in brief: as §1

O=c1[nH]c2ccccc2n1C1CCN(CCCC(c2ccc(F)cc2)c2ccc(F)cc2)CC1 [Pimozide] + COc1cc2c(Oc3ccc(NC(=O)C4(C(=O)Nc5ccc(F)cc5)CC4)cc3F)ccnc2cc1OCCCN1CCOCC1 [Foretinib] (partner 0.25 µM)
relative viability (201T; first compound 0.08 µM): 1.08
relative viability (201T; first compound 0.253 µM): 1.06
relative viability (201T; first compound 0.8 µM): 0.979
relative viability (201T; first compound 2.53 µM): 1.02
relative viability (201T; first compound 8 µM): 0.909
relative viability (BEN; first compound 0.08 µM): 0.624
relative viability (BEN; first compound 0.253 µM): 0.768
relative viability (BEN; first compound 0.8 µM): 0.618
relative viability (BEN; first compound 2.53 µM): 0.581
relative viability (BEN; first compound 8 µM): 0.783
relative viability (COR-L 105; first compound 0.253 µM): 1.01
relative viability (COR-L 105; first compound 0.8 µM): 0.99
relative viability (COR-L 105; first compound 2.53 µM): 0.876
relative viability (COR-L 105; first compound 8 µM): 0.779
relative viability (COR-L23; first compound 0.08 µM): 1.01
relative viability (COR-L23; first compound 0.253 µM): 0.951
relative viability (COR-L23; first compound 0.8 µM): 0.909
relative viability (COR-L23; first compound 2.53 µM): 1.05
relative viability (COR-L23; first compound 8 µM): 0.905
relative viability (EKVX; first compound 0.08 µM): 0.196
relative viability (EKVX; first compound 0.253 µM): 0.827
relative viability (EKVX; first compound 0.8 µM): 0.764
relative viability (EKVX; first compound 2.53 µM): 0.747
relative viability (EKVX; first compound 8 µM): 0.908
relative viability (HARA; first compound 0.253 µM): 0.874
relative viability (HARA; first compound 0.8 µM): 0.873
relative viability (HARA; first compound 2.53 µM): 0.733
relative viability (HARA; first compound 8 µM): 0.766
relative viability (HCC-15; first compound 0.08 µM): 1.09
relative viability (HCC-15; first compound 0.253 µM): 1.01
relative viability (HCC-15; first compound 0.8 µM): 0.868
relative viability (HCC-15; first compound 2.53 µM): 0.964
relative viability (HCC-15; first compound 8 µM): 0.94
relative viability (HCC-366; first compound 0.08 µM): 0.862
relative viability (HCC-366; first compound 0.253 µM): 0.952
relative viability (HCC-366; first compound 0.8 µM): 0.866
relative viability (HCC-366; first compound 2.53 µM): 0.925
relative viability (HCC-366; first compound 8 µM): 0.859
relative viability (HCC-78; first compound 0.08 µM): 0.536
relative viability (HCC-78; first compound 0.8 µM): 0.482
relative viability (HCC-78; first compound 2.53 µM): 0.564
relative viability (HCC-78; first compound 8 µM): 0.573
relative viability (HCC-827; first compound 0.253 µM): 1.01
relative viability (HCC-827; first compound 0.8 µM): 0.915
relative viability (HCC-827; first compound 2.53 µM): 0.967
relative viability (HCC-827; first compound 8 µM): 0.904
relative viability (LC-2-ad; first compound 0.08 µM): 0.911
relative viability (LC-2-ad; first compound 0.253 µM): 0.928
relative viability (LC-2-ad; first compound 0.8 µM): 0.909
relative viability (LC-2-ad; first compound 2.53 µM): 0.901
relative viability (LC-2-ad; first compound 8 µM): 0.868
relative viability (LU99A; first compound 0.08 µM): 0.872
relative viability (LU99A; first compound 0.253 µM): 0.756
relative viability (LU99A; first compound 0.8 µM): 0.922
relative viability (LU99A; first compound 2.53 µM): 0.84
relative viability (LU99A; first compound 8 µM): 0.922
relative viability (LXF-289; first compound 0.08 µM): 0.989
relative viability (LXF-289; first compound 0.253 µM): 0.929
relative viability (LXF-289; first compound 0.8 µM): 0.944
relative viability (LXF-289; first compound 2.53 µM): 0.892
relative viability (LXF-289; first compound 8 µM): 0.934
relative viability (NCI-H1650; first compound 0.08 µM): 0.72
relative viability (NCI-H1650; first compound 0.253 µM): 1.23
relative viability (NCI-H1650; first compound 0.8 µM): 0.959
relative viability (NCI-H1650; first compound 2.53 µM): 1.17
relative viability (NCI-H1650; first compound 8 µM): 0.933
relative viability (NCI-H1734; first compound 0.08 µM): 0.77
relative viability (NCI-H1734; first compound 0.253 µM): 0.767
relative viability (NCI-H1734; first compound 2.53 µM): 0.883
relative viability (NCI-H1734; first compound 8 µM): 0.834
relative viability (NCI-H1755; first compound 0.08 µM): 0.929
relative viability (NCI-H1755; first compound 0.253 µM): 0.928
relative viability (NCI-H1755; first compound 0.8 µM): 0.874
relative viability (NCI-H1755; first compound 2.53 µM): 0.948
relative viability (NCI-H1755; first compound 8 µM): 0.812
relative viability (NCI-H1944; first compound 0.08 µM): 0.901
relative viability (NCI-H1944; first compound 0.253 µM): 0.891
relative viability (NCI-H1944; first compound 0.8 µM): 0.807
relative viability (NCI-H1944; first compound 2.53 µM): 0.735
relative viability (NCI-H1944; first compound 8 µM): 0.817
relative viability (NCI-H1975; first compound 0.08 µM): 0.948
relative viability (NCI-H1975; first compound 0.253 µM): 0.84
relative viability (NCI-H1975; first compound 0.8 µM): 1.02
relative viability (NCI-H1975; first compound 2.53 µM): 0.847
relative viability (NCI-H1975; first compound 8 µM): 0.952
relative viability (NCI-H1993; first compound 0.08 µM): 0.705
relative viability (NCI-H1993; first compound 0.253 µM): 0.777
relative viability (NCI-H1993; first compound 0.8 µM): 0.727
relative viability (NCI-H1993; first compound 2.53 µM): 0.788
relative viability (NCI-H1993; first compound 8 µM): 0.851
relative viability (NCI-H3122; first compound 0.08 µM): 0.911
relative viability (NCI-H3122; first compound 0.253 µM): 1
relative viability (NCI-H3122; first compound 0.8 µM): 0.91
relative viability (NCI-H3122; first compound 2.53 µM): 0.968
relative viability (NCI-H3122; first compound 8 µM): 0.923
relative viability (NCI-H596; first compound 0.08 µM): 0.883
relative viability (NCI-H596; first compound 0.253 µM): 0.902
relative viability (NCI-H596; first compound 0.8 µM): 1.02
relative viability (NCI-H596; first compound 2.53 µM): 0.78
relative viability (NCI-H596; first compound 8 µM): 0.821
relative viability (RERF-LC-KJ; first compound 0.08 µM): 0.907
relative viability (RERF-LC-KJ; first compound 0.253 µM): 0.844
relative viability (RERF-LC-KJ; first compound 0.8 µM): 0.831
relative viability (RERF-LC-KJ; first compound 2.53 µM): 0.821
relative viability (RERF-LC-KJ; first compound 8 µM): 0.848
relative viability (SK-LU-1; first compound 0.08 µM): 0.888
relative viability (SK-LU-1; first compound 0.253 µM): 0.793
relative viability (SK-LU-1; first compound 0.8 µM): 0.783
relative viability (SK-LU-1; first compound 2.53 µM): 0.777
relative viability (SK-LU-1; first compound 8 µM): 0.637
